Source: publication PMC7293270 (Scientific Reports, 2020)
Like-named read-outs stand apart in the source and are kept apart here.

How the values were obtained:
P-gp = assay: Rho-123 transport assay (flow cytometry) for P-gp activity with RT and NF-κB inhibitor SN50; format: cell-based; conditions: Huh-7, 20 μM Rho-123
Experimental: In brief, Huh-7 cells were seeded in a 6-well plate. RT0Gy, RT2Gy, or RT9Gy was applied. At 1 hr or 24 hr after RT, ketoconazole (a P-gp inhibitor), digoxin (a P-gp substrate) and DMSO were added to the corresponding wells and incubated at 37 °C. The existing medium was replaced with 20 μM Rho-123 solution and incubated for 1 hr. Then, the cells were analyzed (10000 cells/sample) to measure Rho-123 accumulation with a FACSCalibur flow cytometer (excitation (Ex) = 515 nm, emission (Em) = 545 nm; Becton Dickinson, San Jose, CA, USA). The data were analyzed with CellQuest software (Becton Dickinson, San Jose, CA, USA).
The peptide SN50 inhibits nuclear translocation of NF-κB. SN50M was used as a negative control. In brief, Huh-7 cells were pretreated with 20 μM SN50 or SN50M (Enzo Life Sciences, Inc., Farmingdale, NY, USA) for 1 hr and were then irradiated. At 1 hr or 24 hr after RT, the existing medium was replaced with 20 μM Rho-123 and incubated for 1 hr. The cells were analyzed (10000 cells/sample) to measure Rho-123 accumulation with a FACSCalibur flow cytometer (Ex = 515 nm, Em = 545 nm; Becton Dickinson, San Jose, CA, USA). The data were analyzed with CellQuest software (Becton Dickinson, San Jose, CA, USA).

[1] = Biliary excretion pharmacokinetics of Rho-123 after RT in freely moving rats; format: in vivo, Sprague-Dawley rats; conditions: for AUC(0-t) / Cmax / MRT / Tmax / clearance / half-life: Sprague-Dawley, rat, bile, iv, 0.2 mg/kg, biliary excretion; for half-life: read-out: t½
Experimental: A freely moving rat model was designed for the current study[21] (Fig. 1A). Experimental rats were anesthetized with 1 g/mL urethane and 0.1 g/mL α-chloralose (1 mL/kg by intraperitoneal [i.p.] injection), and polyethylene tubes were then implanted in the right jugular vein for intravenous (i.v.) fluid administration. The right jugular vein was catheterized for blood sampling. The catheter traversed the subcutaneous tissue and was fixed in the dorsal neck region. After surgery, the rats were placed in an experimental cage and allowed to recover for 1 day. During the recovery period, the rats were kept warm under a light. Then, the rats were anesthetized and immobilized on a board while undergoing CT for localization of the whole liver (conventional technique, Fig. 1B) or a central area of 1.5 × 1.5 cm (SBRT technique, Fig. 1C). […] An equal volume of methanol was added to 100-μL aliquots of bile and plasma sample specimens for deproteinization. The mixture was vortexed for 15 s and centrifuged at 12000 × g for 10 min.

[2] = RT2Gy, Rho-123 10 min later (concurrent)
[3] = RT2Gy, Rho-123 24 hr later (sequential)
[4] = RT9Gy, Rho-123 10 min later (concurrent)
[5] = RT9Gy, Rho-123 24 hr later (sequential)
[6] = sham RT, Rho-123 0.2 mg/kg i.v., rats

## COC(=O)c1ccccc1-c1c2ccc(=N)cc-2oc2cc(N)ccc12 [Rho-123, rhodamine 123]
P-gp; concurrent RT2Gy
  Rho-123 intensity: 99.2 ± 2.2
P-gp; concurrent RT9Gy
  Rho-123 intensity: 93.6 ± 3.4
P-gp; sequential RT2Gy
  Rho-123 intensity: 103.8 ± 0.6
P-gp; sequential RT9Gy
  Rho-123 intensity: 118.4 ± 0.9
[1]; RT2Gy, Rho-123 0.2 mg/kg i.v. 10 min later (concurrent)
  AUC(0-t): 3170 ng·h/mL
[1]; RT2Gy, Rho-123 0.2 mg/kg i.v. 24 hr later (sequential)
  AUC(0-t): 1920 ng·h/mL
[1]; [2]
  Cmax: 3560 ± 1930 ng/mL
  MRT: 66 min
  Tmax: 11 min
  clearance: 0.92 ± 0.23 mL/min/kg
  half-life: 46 ± 13 min
[1]; [3]
  Cmax: 2240 ± 570 ng/mL
  MRT: 47 min
  Tmax: 9 min
  clearance: 1.73 ± 0.61 mL/min/kg
  half-life: 32 ± 8 min
[1]; RT9Gy, Rho-123 0.2 mg/kg i.v. 10 min later (concurrent)
  AUC(0-t): 2710 ng·h/mL
[1]; RT9Gy, Rho-123 0.2 mg/kg i.v. 24 hr later (sequential)
  AUC(0-t): 1660 ng·h/mL
[1]; [4]
  Cmax: 2860 ± 830 ng/mL
  MRT: 66 min
  Tmax: 11 min
  clearance: 1.07 ± 0.33 mL/min/kg
  half-life: 43 ± 6 min
[1]; [5]
  Cmax: 2070 ± 750 ng/mL
  MRT: 50 min
  Tmax: 13 min
  clearance: 1.91 ± 0.56 mL/min/kg
  half-life: 34 ± 9 min
[1]; [6]
  AUC(0-t): 1880 ng·h/mL
  Cmax: 2010 ± 600 ng/mL
  MRT: 61 min
  Tmax: 14 min
  clearance: 1.56 ± 0.3 mL/min/kg
  half-life: 42 ± 13 min
[1]; concurrent RT2Gy compared to sham group
  Increase in AUC of biliary excretion: 69.0%
[1]; concurrent RT9Gy compared to sham group
  Increase in AUC of biliary excretion: 44.2%
[1]; sequential RT2Gy compared to concurrent RT2Gy
  Decrease in AUC of biliary excretion: 39.5%
[1]; sequential RT9Gy compared to concurrent RT9Gy
  Decrease in AUC of biliary excretion: 38.6%
